Results: PubChem BioAssay (NCI)
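Here, GI50 denotes the concentration required for 50% inhibition of growth. The concentration for full growth arrest is given as TGI.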

Key:
Assay in all cases: NCI-60 cell line screen, 384-well format
786-0 renal = test system: 786-0 renal
A498 renal = test system: A498 renal
A549 NSCLC = test system: A549 NSCLC
ACHN renal = test system: ACHN renal
BT-549 breast = test system: BT-549 breast
CAKI-1 renal = test system: CAKI-1 renal
CCRF-CEM leukemia = test system: CCRF-CEM leukemia
COLO 205 colon = test system: COLO 205 colon
DU-145 prostate = test system: DU-145 prostate
EKVX NSCLC = test system: EKVX NSCLC
HCC-2998 colon = test system: HCC-2998 colon
HCT-116 colon = test system: HCT-116 colon
HCT-15 colon = test system: HCT-15 colon
HL-60(TB) leukemia = test system: HL-60(TB) leukemia
HOP-62 NSCLC = test system: HOP-62 NSCLC
HOP-92 NSCLC = test system: HOP-92 NSCLC
HS 578T breast = test system: HS 578T breast
HT29 colon = test system: HT29 colon
IGROV1 ovarian = test system: IGROV1 ovarian
K-562 leukemia = test system: K-562 leukemia
KM12 colon = test system: KM12 colon
LOX IMVI melanoma = test system: LOX IMVI melanoma
M14 melanoma = test system: M14 melanoma
MALME-3M melanoma = test system: MALME-3M melanoma
MCF7 breast = test system: MCF7 breast
MDA-MB-231 breast = test system: MDA-MB-231 breast
MDA-MB-435 melanoma = test system: MDA-MB-435 melanoma
MDA-MB-468 breast = test system: MDA-MB-468 breast
MOLT-4 leukemia = test system: MOLT-4 leukemia
NCI-H226 lung = test system: NCI-H226 lung
NCI-H23 lung = test system: NCI-H23 lung
NCI-H322M lung = test system: NCI-H322M lung
NCI-H460 NSCLC = test system: NCI-H460 NSCLC
NCI-H522 lung = test system: NCI-H522 lung
NCI/ADR-RES ovarian = test system: NCI/ADR-RES ovarian
OVCAR-3 ovarian = test system: OVCAR-3 ovarian
OVCAR-4 ovarian = test system: OVCAR-4 ovarian
OVCAR-5 ovarian = test system: OVCAR-5 ovarian
PC-3 prostate = test system: PC-3 prostate
RPMI-8226 leukemia = test system: RPMI-8226 leukemia
RXF 393 renal = test system: RXF 393 renal
SF-268 CNS = test system: SF-268 CNS
SF-295 CNS = test system: SF-295 CNS
SF-539 CNS = test system: SF-539 CNS
SK-MEL-2 melanoma = test system: SK-MEL-2 melanoma
SK-MEL-28 melanoma = test system: SK-MEL-28 melanoma
SK-MEL-5 melanoma = test system: SK-MEL-5 melanoma
SK-OV-3 ovarian = test system: SK-OV-3 ovarian
SN12C renal = test system: SN12C renal
SNB-19 CNS = test system: SNB-19 CNS
SNB-75 CNS = test system: SNB-75 CNS
SR leukemia = test system: SR leukemia
SW-620 colon = test system: SW-620 colon
T-47D breast = test system: T-47D breast
TK-10 renal = test system: TK-10 renal
U251 glioblastoma = test system: U251 glioblastoma
UACC-257 melanoma = test system: UACC-257 melanoma
UACC-62 melanoma = test system: UACC-62 melanoma
UO-31 renal = test system: UO-31 renal

Question: For `N[C@H](CCC(=O)N[C@@H](Cc1c[nH]c2ccccc12)C(=O)O)C(=O)O`, which GI50 ([…]-0 renal) is on record?
Answer: > 100 µM

Question: What about the TGI (786-0 renal) of the same compound?
Answer: > 100 µM

Question: What about the GI50 (A498 renal) of the same compound?
Answer: > 100 µM

Question: What about the TGI (A498 renal) of the same compound?
Answer: > 100 µM

Question: What about the GI50 (A549 NSCLC) of the same compound?
Answer: > 100 µM

Question: And the TGI (A549 NSCLC)?
Answer: > 100 µM

Question: What about the GI50 (ACHN renal) of the same compound?
Answer: > 100 µM

Question: What about the TGI (ACHN renal) of the same compound?
Answer: > 100 µM

Question: And the GI50 (BT-549 breast)?
Answer: > 100 µM

Question: What about the TGI (BT-549 breast) of the same compound?
Answer: > 100 µM

Question: And the GI50 (CAKI-1 renal)?
Answer: > 100 µM

Question: What about the TGI (CAKI-1 renal) of the same compound?
Answer: > 100 µM

Question: And the GI50 (CCRF-CEM leukemia)?
Answer: > 100 µM

Question: What about the TGI (CCRF-CEM leukemia) of the same compound?
Answer: > 100 µM

Question: And the GI50 (COLO 205 colon)?
Answer: > 100 µM

Question: What about the TGI (COLO 205 colon) of the same compound?
Answer: > 100 µM

Question: What about the GI50 (DU-145 prostate) of the same compound?
Answer: > 100 µM

Question: And the TGI (DU-145 prostate)?
Answer: > 100 µM

Question: What about the GI50 (EKVX NSCLC) of the same compound?
Answer: > 100 µM

Question: What about the TGI (EKVX NSCLC) of the same compound?
Answer: > 100 µM

Question: What about the GI50 (HCC-2998 colon) of the same compound?
Answer: > 100 µM

Question: What about the TGI (HCC-2998 colon) of the same compound?
Answer: > 100 µM

Question: What about the GI50 (HCT-116 colon) of the same compound?
Answer: > 100 µM

Question: What about the TGI (HCT-116 colon) of the same compound?
Answer: > 100 µM

Question: What about the GI50 (HCT-15 colon) of the same compound?
Answer: > 100 µM

Question: What about the TGI (HCT-15 colon) of the same compound?
Answer: > 100 µM

Question: And the GI50 (HL-60(TB) leukemia)?
Answer: > 100 µM

Question: What about the TGI (HL-60(TB) leukemia) of the same compound?
Answer: > 100 µM

Question: And the GI50 (HOP-62 NSCLC)?
Answer: > 100 µM

Question: What about the TGI (HOP-62 NSCLC) of the same compound?
Answer: > 100 µM

Question: What about the GI50 (HOP-92 NSCLC) of the same compound?
Answer: > 100 µM

Question: And the TGI (HOP-92 NSCLC)?
Answer: > 100 µM

Question: And the GI50 (HS 578T breast)?
Answer: > 100 µM

Question: And the TGI (HS 578T breast)?
Answer: > 100 µM

Question: What about the GI50 (HT29 colon) of the same compound?
Answer: > 100 µM

Question: And the TGI (HT29 colon)?
Answer: > 100 µM

Question: And the GI50 (IGROV1 ovarian)?
Answer: > 100 µM

Question: What about the TGI (IGROV1 ovarian) of the same compound?
Answer: > 100 µM

Question: What about the GI50 (K-562 leukemia) of the same compound?
Answer: > 100 µM

Question: And the TGI (K-562 leukemia)?
Answer: > 100 µM

Question: What about the GI50 (KM12 colon) of the same compound?
Answer: > 100 µM

Question: What about the TGI (KM12 colon) of the same compound?
Answer: > 100 µM

Question: What about the GI50 (LOX IMVI melanoma) of the same compound?
Answer: > 100 µM

Question: And the TGI (LOX IMVI melanoma)?
Answer: > 100 µM

Question: And the GI50 (M14 melanoma)?
Answer: > 100 µM

Question: And the TGI (M14 melanoma)?
Answer: > 100 µM

Question: What about the GI50 (MALME-3M melanoma) of the same compound?
Answer: > 100 µM

Question: And the TGI (MALME-3M melanoma)?
Answer: > 100 µM

Question: What about the GI50 (MCF7 breast) of the same compound?
Answer: > 100 µM

Question: What about the TGI (MCF7 breast) of the same compound?
Answer: > 100 µM

Question: And the GI50 (MDA-MB-231 breast)?
Answer: > 100 µM

Question: And the TGI (MDA-MB-231 breast)?
Answer: > 100 µM

Question: What about the GI50 (MDA-MB-435 melanoma) of the same compound?
Answer: > 100 µM

Question: And the TGI (MDA-MB-435 melanoma)?
Answer: > 100 µM

Question: What about the GI50 (MDA-MB-468 breast) of the same compound?
Answer: > 100 µM

Question: What about the TGI (MDA-MB-468 breast) of the same compound?
Answer: > 100 µM

Question: And the GI50 (MOLT-4 leukemia)?
Answer: > 100 µM

Question: What about the TGI (MOLT-4 leukemia) of the same compound?
Answer: > 100 µM

Question: What about the GI50 (NCI-H226 lung) of the same compound?
Answer: > 100 µM

Question: What about the TGI (NCI-H226 lung) of the same compound?
Answer: > 100 µM

Question: And the GI50 (NCI-H23 lung)?
Answer: > 100 µM

Question: And the TGI (NCI-H23 lung)?
Answer: > 100 µM

Question: What about the GI50 (NCI-H322M lung) of the same compound?
Answer: > 100 µM

Question: And the TGI (NCI-H322M lung)?
Answer: > 100 µM

Question: What about the GI50 (NCI-H460 NSCLC) of the same compound?
Answer: > 100 µM

Question: And the TGI (NCI-H460 NSCLC)?
Answer: > 100 µM

Question: And the GI50 (NCI-H522 lung)?
Answer: > 100 µM

Question: What about the TGI (NCI-H522 lung) of the same compound?
Answer: > 100 µM

Question: And the GI50 (NCI/ADR-RES ovarian)?
Answer: > 100 µM

Question: And the TGI (NCI/ADR-RES ovarian)?
Answer: > 100 µM

Question: And the GI50 (OVCAR-3 ovarian)?
Answer: > 100 µM

Question: And the TGI (OVCAR-3 ovarian)?
Answer: > 100 µM

Question: And the GI50 (OVCAR-4 ovarian)?
Answer: > 100 µM

Question: What about the TGI (OVCAR-4 ovarian) of the same compound?
Answer: > 100 µM

Question: And the GI50 (OVCAR-5 ovarian)?
Answer: > 100 µM

Question: And the TGI (OVCAR-5 ovarian)?
Answer: > 100 µM

Question: And the GI50 (PC-3 prostate)?
Answer: > 100 µM

Question: And the TGI (PC-3 prostate)?
Answer: > 100 µM

Question: What about the GI50 (RPMI-8226 leukemia) of the same compound?
Answer: > 100 µM

Question: What about the TGI (RPMI-8226 leukemia) of the same compound?
Answer: > 100 µM

Question: What about the GI50 (RXF 393 renal) of the same compound?
Answer: > 100 µM

Question: And the TGI (RXF 393 renal)?
Answer: > 100 µM

Question: And the GI50 (SF-268 CNS)?
Answer: > 100 µM

Question: What about the TGI (SF-268 CNS) of the same compound?
Answer: > 100 µM

Question: What about the GI50 (SF-295 CNS) of the same compound?
Answer: > 100 µM

Question: And the TGI (SF-295 CNS)?
Answer: > 100 µM

Question: What about the GI50 (SF-539 CNS) of the same compound?
Answer: > 100 µM

Question: And the TGI (SF-539 CNS)?
Answer: > 100 µM

Question: What about the GI50 (SK-MEL-2 melanoma) of the same compound?
Answer: > 100 µM

Question: What about the TGI (SK-MEL-2 melanoma) of the same compound?
Answer: > 100 µM

Question: And the GI50 (SK-MEL-28 melanoma)?
Answer: > 100 µM

Question: What about the TGI (SK-MEL-28 melanoma) of the same compound?
Answer: > 100 µM

Question: What about the GI50 (SK-MEL-5 melanoma) of the same compound?
Answer: > 100 µM

Question: And the TGI (SK-MEL-5 melanoma)?
Answer: > 100 µM

Question: And the GI50 (SK-OV-3 ovarian)?
Answer: > 100 µM

Question: And the TGI (SK-OV-3 ovarian)?
Answer: > 100 µM

Question: What about the GI50 (SN12C renal) of the same compound?
Answer: > 100 µM

Question: And the TGI (SN12C renal)?
Answer: > 100 µM

Question: And the GI50 (SNB-19 CNS)?
Answer: > 100 µM

Question: What about the TGI (SNB-19 CNS) of the same compound?
Answer: > 100 µM

Question: And the GI50 (SNB-75 CNS)?
Answer: > 100 µM

Question: And the TGI (SNB-75 CNS)?
Answer: > 100 µM

Question: What about the GI50 (SR leukemia) of the same compound?
Answer: > 100 µM

Question: And the TGI (SR leukemia)?
Answer: > 100 µM

Question: What about the GI50 (SW-620 colon) of the same compound?
Answer: > 100 µM

Question: And the TGI (SW-620 colon)?
Answer: > 100 µM

Question: And the GI50 (T-47D breast)?
Answer: > 100 µM

Question: And the TGI (T-47D breast)?
Answer: > 100 µM

Question: And the GI50 (TK-10 renal)?
Answer: > 100 µM

Question: What about the TGI (TK-10 renal) of the same compound?
Answer: > 100 µM

Question: And the GI50 (U251 glioblastoma)?
Answer: > 100 µM

Question: What about the TGI (U251 glioblastoma) of the same compound?
Answer: > 100 µM

Question: What about the GI50 (UACC-257 melanoma) of the same compound?
Answer: > 100 µM

Question: What about the TGI (UACC-257 melanoma) of the same compound?
Answer: > 100 µM

Question: What about the GI50 (UACC-62 melanoma) of the same compound?
Answer: > 100 µM

Question: And the TGI (UACC-62 melanoma)?
Answer: > 100 µM

Question: And the GI50 (UO-31 renal)?
Answer: > 100 µM

Question: What about the TGI (UO-31 renal) of the same compound?
Answer: > 100 µM
